How the values were obtained:
[1] = system: bicistronic HCV replicon (replicon RNA, GenBank Accession No. AJ242654); experiment: HCV Replicon Assay; type: cell-based; details: Hepatitis C virus, 72 h, read-out: Replicon IC50

Cc1cc2c(C#N)c(-c3ccc(S(=O)(=O)NC(CF)CF)cn3)n(C3CCC3)c2cc1Cl [compound 505, 6-(6-chloro-3-cyano-1-cyclobutyl-5-methyl-1H-indol-2-yl)-N-(1,3-difluoropropan-2-yl)pyridine-3-sulfonamide]
IC50 [1]: < 500 nM
melting point: 195 to 196 °C

Cc1cc2c(cc1F)c(C(N)=O)c(-c1ccc(S(=O)(=O)NC(C)(C)C)cn1)n2C1CCCCC1 [compound 1115, 2-[5-(tert-butylsulfamoyl)pyridin-2-yl]-1-cyclohexyl-5-fluoro-6-methyl-1H-indole-3-carboxamide]
IC50 [1]: < 500 nM
melting point: 274.5 to 275.6 °C

N#Cc1c(-c2ccc(S(=O)(=O)NC3(C(F)(F)F)CC3)cn2)n(C2CCCC2)c2cc(OC(F)F)ccc12 [compound 94, 6-[3-cyano-1-cyclopentyl-6-(difluoromethoxy)-1H-indol-2-yl]-N-[1-(trifluoromethyl)cyclopropyl]pyridine-3-sulfonamide]
IC50 [1]: < 500 nM
melting point: 186 to 193 °C

C[C@H](NS(=O)(=O)c1cnc(-c2c(C#N)c3ccc(CC(F)F)cc3n2C2CCC2)nc1)C(F)(F)F [compound 385, 2-[3-cyano-1-cyclobutyl-6-(2,2-difluoroethyl)-1H-indol-2-yl]-N-[(2S)-1,1,1-trifluoropropan-2-yl]pyrimidine-5-sulfonamide]
IC50 [1]: < 500 nM
melting point: 216 to 218 °C

CC(C)(C)S(=O)(=O)Nc1ccc(-c2c(C#N)c3ccc(Oc4ncccn4)cc3n2C2CCC2)cn1 [compound 268, N-{5-[3-cyano-1-cyclobutyl-6-(pyrimidin-2-yloxy)-1H-indol-2-yl]pyridin-2-yl}-2-methylpropane-2-sulfonamide]
IC50 [1]: < 500 nM
melting point: 275 to 277 °C

N#Cc1c(-c2ccc(S(=O)(=O)NC(CF)CF)cn2)n(C2CC2)c2cc(OC(F)F)ccc12 [compound 42, 6-[3-cyano-1-cyclopropyl-6-(difluoromethoxy)-1H-indol-2-yl]-N-(1,3-difluoropropan-2-yl)pyridine-3-sulfonamide]
IC50 [1]: < 500 nM
melting point: 219 to 220 °C

CC(C)NS(=O)(=O)c1cnc(-c2c(C#N)c3cc(Cl)ccc3n2C2CCC2)nc1 [compound 114, 2-(5-chloro-3-cyano-1-cyclobutyl-1H-indol-2-yl)-N-(propan-2-yl)pyrimidine-5-sulfonamide]
IC50 [1]: < 500 nM
melting point: > 198 °C (dec.)

C[C@H](NS(=O)(=O)c1ccc(-c2c(Cl)c3cc(F)c(C4CC4)cc3n2-c2ncccn2)nc1)C(F)(F)F [compound 947, 6-[3-chloro-6-cyclopropyl-5-fluoro-1-(pyrimidin-2-yl)-1H-indol-2-yl]-N-[(2S)-1,1,1-trifluoropropan-2-yl]pyridine-3-sulfonamide]
IC50 [1]: < 500 nM
melting point: 248 to 250 °C

C[C@H](NS(=O)(=O)c1ccc(-c2c(C#N)c3cc(F)c(OC(F)F)cc3n2-c2ccccn2)nc1)C(F)(F)F [compound 657, 6-[3-cyano-6-(difluoromethoxy)-5-fluoro-1-(pyridine-2-yl)-1H-indol-2-yl]-N-[(2S)-1,1,1-trifluoropropan-2-yl]pyridine-3-sulfonamide]
IC50 [1]: < 500 nM
melting point: 161 to 163 °C

N#Cc1c(-c2ccc(S(=O)(=O)NC3(C(F)(F)F)CC3)cn2)n(C2CCCC2)c2ccc(F)cc12 [compound 327, 6-(3-cyano-1-cyclopentyl-5-fluoro-1H-indol-2-yl)-N-[1-(trifluoromethyl)cyclopropyl]pyridine-3-sulfonamide]
IC50 [1]: < 500 nM
melting point: 202 to 206 °C

Cc1cc2c(C#N)c(-c3ccc(S(=O)(=O)NC(CF)CF)cn3)n(C3CCCC3)c2cc1F [compound 482, 6-(3-cyano-1-cyclopentyl-6-fluoro-5-methyl-1H-indol-2-yl)-N-(1,3-difluoropropan-2-yl)pyridine-3-sulfonamide]
IC50 [1]: < 500 nM
melting point: 207 to 211 °C

— patent US8735414B2 (priority 2009, dated 2014)
